Results reported in patent publication US4179508A, “Sulfur-containing derivatives of 4,4-dimethyl-2H,4H-isoquinoline-1,3-dione, and anticonvulsant and antihyperlipidemic compositions thereof” (Boehringer Ingelheim GmbH, priority 1977, dated 1979).
Like-named read-outs stand apart in the source and are kept apart here.

Experiments:
Format in all cases: in vivo
[1] = system: hind limb tonic extensor component of the maximal seizure pattern; experiment: Anticonvulsive activity in mice, maximal electroshock seizure pattern method; conditions: Mus musculus, male mice, oral, maximal electroshock 50 mA, 0.2 sec.
Method: (§1) The anticonvulsive activity and toxicity of the compounds of this invention were ascertained by the methods described below, and tables I and II show the results of these tests for a few representative species of the genus, where
Male mice with body weights of between 20 and 26 gm were used as the test animals. They were allowed free access to food and water up to one hour before administration of the test compound. The tests were carried out by using the maximal electroshock seizure pattern method [SWINYARD et, J. Pharmacol. exp. Ther. 106, 319 (1952)].
The electroshock apparatus was constructed according to WOODBURY and DAVENPORT [Arch. int. Pharmacodyn. 99, 97 (1952)]. The electric impulses (50 Hz A.C., 50 mA, 0.2 sec.) were delivered via steel ball electrodes covered with buckskin and moistened with an aqueous 0.9% sodium chloride solution to the heads by way of the eyes of the mice. The test is a measure of the ability of an anticonvulsant drug to abolish the hind limb tonic extensor component of the maximal seizure pattern induced by electric stimulation. The test compound was suspended in 1% of tylose and administered orally in a volume of 0.1 ml per 10 gm of mouse, and each dosage was administered to a group of 10 animals. Control groups received the suspension agent orally. 30, 150 and 300 minutes after administration all animals were shocked. ED50 values were determined by the graphic statistical method of LITCHFIELD and WILCOXON [J. Pharmacol. exp. Therap. 96, 99 (1949)] as a measure of the ability of the test compounds to abolish the hindlimb tonic extensor compound of the maximal seizure pattern in 50 percent of the animals.

Acute toxicity = conditions: mouse, in vivo, po; mice, p.o., groups of 10, observation time 4 days
Method: as §1
(§2) The acute toxicity of the compounds was determined after administration of various dosages to groups of 10 mice with body weights of between 20 and 26 gm (observation time: 4 days).

mice = experiment: Acute toxicity; conditions: 500 mgm/kg p.o., observation time 4 days
Method: as §1, §2

[2] = 0.5 h, shocked 30 minutes after administration, read-out: ED50, 30 minutes
[3] = 2.5 h, shocked 150 minutes after administration, read-out: ED50, 150 minutes
[4] = 5 h, shocked 300 minutes after administration, read-out: ED50, 300 minutes

Q: With `CSCN1C(=O)c2ccccc2C(C)(C)C1=O` [D, 4,4-Dimethyl-2-(methylmercapto-methyl)-2H,4H-isoquinoline-1,3-dione] as the molecule, how does the ED50 [1, 2] read?
A: Its ED50 is 28 mg/kg.

Q: And the ED50 [1, 3]?
A: Its ED50 is 16.2 mg/kg.

Q: What about the ED50 [1, 4] of the same molecule?
A: Its ED50 is 19.8 mg/kg.

Q: For `C[S+]([O-])CN1C(=O)c2ccccc2C(C)(C)C1=O` (stereo not drawn) [E, 4,4-Dimethyl-2-(methylsulfinyl-methyl)-2H,4H-isoquinoline-1,3-dione], which ED50 [1, 2] is on record?
A: Its ED50 is 8.3 mg/kg.

Q: What about the ED50 [1, 3] of the same molecule?
A: Its ED50 is 10.5 mg/kg.

Q: And the ED50 [1, 4]?
A: Its ED50 is 11.5 mg/kg.

Q: Which results are given for `C[S+]([O-])CCN1C(=O)c2ccccc2C(C)(C)C1=O` (stereo not drawn) [B, 4,4-Dimethyl-2-(2-methylsulfinyl-ethyl)-2H,4H-isoqionoline-1,3-dione]?
A: ED50 [1, 2]: 14.5 mg/kg; ED50 [1, 3]: 16.8 mg/kg; ED50 [1, 4]: 25 mg/kg; LD50 at 96 h (Acute toxicity): ~500 mg/kg; animals died (mice): 4 of 10

Q: With `CC1(C)C(=O)N(CCS(C)(=O)=O)C(=O)c2ccccc21` [C, 4,4-Dimethyl-2-(2-methylsulfonyl-ethyl)-2H,4H-isoquinoline-1,3-dione] as the molecule, how does the ED50 [1, 2] read?
A: The ED50 was 26.3 mg/kg.

Q: What about the ED50 [1, 3] of the same molecule?
A: Its ED50 is 35.2 mg/kg.

Q: And the ED50 [1, 4]?
A: The ED50 was 32.5 mg/kg.

Q: What about the LD50 at 96 h (Acute toxicity) of the same molecule?
A: Its LD50 at 96 h is > 500 mg/kg.

Q: And the animals died (mice)?
A: The animals died was 1 of 10.

Q: Which ED50 [1, 2] does the source give for `CSCCN1C(=O)c2ccccc2C(C)(C)C1=O` [Compound A, 4,4-Dimethyl-2-(2-methylmercapto-ethyl)-2H,4H-isoquinoline-1,3-dione] here?
A: Its ED50 is 17.3 mg/kg.

Q: And the ED50 [1, 3]?
A: The ED50 was 22.8 mg/kg.

Q: And the ED50 [1, 4]?
A: The ED50 was 27.8 mg/kg.

Q: And the LD50 at 96 h (Acute toxicity)?
A: Its LD50 at 96 h is > 500 mg/kg.

Q: And the animals died (mice)?
A: The animals died was 0 of 10.
